Measured values from US20250145665A1, “MACROCYCLIC PEPTIDES USEFUL AS MODULATORS OF TNF ALPHA” (Bristol-Myers Squibb Company, priority 2023, published 2025).
pIC50: −log10 of the molar value. Like-named read-outs stand apart in the source and are kept apart here. Starred links: 1 amine or outer side, 2 acyl side, 3 side chain; linkers in the order of their positions; H or OH if unused. Positions of bridges follow the written chain, without caps; N, C: chain ends. Non-standard residues stand in square brackets, D forms with d. Residues, ends and D or L forms follow the SMILES beside them. ξ: configuration not given here. *: point of attachment. Bip(4'-NHBz) = N[C@@H](Cc1ccc(-c2ccc(NC(=O)c3ccccc3)cc2)cc1)C(=O)O; Bip(4'-NH) = O=C([C@H](Cc1ccc(-c2ccc(N[*:3])cc2)cc1)N[*:1])[*:2]; Indazole3carbonyl(1-CH2COOH) = O=C(O)Cn1nc(C(=O)*)c2ccccc21; Bip(4'-COOH) = N[C@@H](Cc1ccc(-c2ccc(C(=O)O)cc2)cc1)C(=O)O; Bip(4'-NHAc) = CC(=O)Nc1ccc(-c2ccc(C[C@H](N)C(=O)O)cc2)cc1; Phe(3-CH2NH2) = O=C([C@H](Cc1cccc(CN[*:3])c1)N[*:1])[*:2]; dArg(ω-Bn) = N=C(NCCC[C@@H](N)C(=O)O)NCc1ccccc1; Ala(morpholin-4-yl) = N[C@@H](CN1CCOCC1)C(=O)O; Benzoyl(3-OCH2COOH) = O=C(O)COc1cccc(C(=O)*)c1; Phe(3-CONH2) = NC(=O)c1cccc(C[C@H](N)C(=O)O)c1; X41 = N=C(NCCCO)NCCC[C@@H](N[*:1])C(=O)[*:2]; Phe(4-CH2NH2) = NCc1ccc(C[C@H](N)C(=O)O)cc1; Bip = N[C@@H](Cc1ccc(-c2ccccc2)cc1)C(=O)O; 2Pal = N[C@@H](Cc1ccccn1)C(=O)O; Tic = O=C(O)[C@@H]1Cc2ccccc2CN1; 2Thi = N[C@@H](Cc1cccs1)C(=O)O; Cha = N[C@@H](CC1CCCCC1)C(=O)O; Tle = CC(C)(C)[C@H](N)C(=O)O; Aze = O=C(O)[C@@H]1CCN1; ξE = NC(CCC(=O)O)C(=O)O; Sar = CNCC(=O)O

Target: TNFα (Homo sapiens, UniProt P01375)
Sequence (P01375 77-233 limits assumed): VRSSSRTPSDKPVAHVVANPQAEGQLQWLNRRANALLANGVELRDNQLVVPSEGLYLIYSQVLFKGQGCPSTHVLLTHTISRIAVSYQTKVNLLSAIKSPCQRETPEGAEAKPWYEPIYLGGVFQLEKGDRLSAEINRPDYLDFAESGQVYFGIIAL
Experiment: TNF-Induced HEK-Blue Assay
Assay type: cell-based
[1] = HEK-Blue-CD40L cells, NF-kB-driven secreted alkaline phosphatase reporter, TNFα 0.5 ng/ml, 18 h, read-out: TNF induced HEK-Blue assay IC50 value

| pIC50 [1] | SMILES | pIC50 |
| --- | --- | --- |
| 6.70 to 7.30 | CC(=O)Nc1ccc(-c2ccc(C[C@@H]3NC(=O)[C@H](Cc4ccc(-c5ccccc5)cc4)NC(=O)[C@H](CN4CCOCC4)NC(=O)CSC[C@@H](C(=O)NCC(N)=O)NC(=O)[C@H](CC(C)C)NC(=O)[C@H](Cc4ccc(O)cc4)NC(=O)[C@H](C(C)C)NC(=O)[C@@H]4CCCN4C(=O)[C@H](CC(N)=O)NC(=O)[C@@H](CCCNC(=N)N)NC(=O)[C@H](CC(=O)O)NC(=O)[C@H](Cc4ccccn4)NC(=O)CN(C)C3=O)cc2)cc1 [Example 173] ({CH2CO}-[Ala(morpholin-4-yl)][Bip][Bip(4'-NHAc)][Sar][2Pal]D[dR]NPVYLCG-NH2; thioether N-13) |  |
| > 7.30 | CC[C@H](C)[C@@H]1NC(=O)[C@@H](CCCNC(=N)N)NC(=O)[C@H](CC(=O)O)NC(=O)[C@H](Cc2cnc[nH]2)NC(=O)CN(C)C(=O)[C@H](Cc2ccc(-c3ccc(NC(C)=O)cc3)cc2)NC(=O)[C@H](Cc2ccc(-c3ccc(C(=O)O)cc3)cc2)NC(=O)[C@H](CC2CCCCC2)NC(=O)CSC[C@@H](C(=O)NCC(N)=O)NC(=O)[C@H](CC(C)C)NC(=O)[C@H](Cc2cnc[nH]2)NC(=O)[C@H](C(C)C)NC(=O)[C@@H]2Cc3ccccc3CN2C1=O [Example 274] ({CH2CO}-[Cha][Bip(4'-COOH)][Bip(4'-NHAc)][Sar]HD[dR]I[Tic]VHLCG-NH2; thioether N-13) |  |
|  | CC(C)C[C@@H]1NC(=O)[C@H](CCCNC(=N)N)NC(=O)[C@H](C(C)C)NC(=O)[C@@H]2CCCN2C(=O)[C@H](C(C)C)NC(=O)[C@@H](CCCNC(=N)NCc2ccccc2)NC(=O)[C@H](CC(=O)O)NC(=O)[C@@H]2CCCN2C(=O)CN(C)C(=O)[C@H](Cc2ccc(-c3ccc(NC(=O)c4nn(CC(=O)O)c5ccccc45)cc3)cc2)NC(=O)[C@H](Cc2ccc(-c3ccccc3)cc2)NC(=O)[C@H](CN2CCOCC2)NC(=O)CSC[C@@H](C(=O)NCC(N)=O)NC1=O [Example 467] ({CH2CO}-[Ala(morpholin-4-yl)][Bip][Bip(4'-NH)](Indazole3carbonyl(1-CH2COOH))[Sar]PD[dArg(ω-Bn)]VPVRLCG-NH2; thioether N-13) | > 7.30 |
| 6.70 to 7.30 | CC(=O)Nc1ccc(-c2ccc(C[C@@H]3NC(=O)[C@H](Cc4ccc(-c5ccccc5)cc4)NC(=O)[C@H](CC4CCCCC4)NC(=O)CSC[C@@H](C(=O)NC(CCC(=O)O)C(N)=O)NC(=O)[C@H](CC(C)C)NC(=O)[C@H](Cc4ccc(O)cc4)NC(=O)[C@H](C(C)C)NC(=O)[C@@H]4CCCN4C(=O)[C@H](C(C)C)NC(=O)[C@@H](CCCNC(=N)N)NC(=O)[C@H](CC(=O)O)NC(=O)[C@@H]4CCCN4C(=O)CN(C)C3=O)cc2)cc1 (stereo partly drawn) [Example 321] ({CH2CO}-[Cha][Bip][Bip(4'-NHAc)][Sar]PD[dR]VPVYLC[ξE]-NH2; thioether N-13) |  |
| 6.70 to 7.30 | CC(C)C[C@@H]1NC(=O)[C@H](Cc2cccs2)NC(=O)[C@H](C(C)C)NC(=O)[C@@H]2CCCN2C(=O)[C@H](C(C)C)NC(=O)[C@@H](CCCNC(=N)N)NC(=O)[C@H](CC(=O)O)NC(=O)[C@H](Cc2ccccn2)NC(=O)CN(C)C(=O)[C@H](Cc2ccc(-c3ccc(NC(=O)c4cccc(OCC(=O)O)c4)cc3)cc2)NC(=O)[C@H](Cc2ccc(-c3ccc(C(=O)O)cc3)cc2)NC(=O)[C@H](CC2CCCCC2)NC(=O)CSC[C@@H](C(=O)NCC(N)=O)NC1=O [Example 614] ({CH2CO}-[Cha][Bip(4'-COOH)][Bip(4'-NH)](Benzoyl(3-OCH2COOH))[Sar][2Pal]D[dR]VPV[2Thi]LCG-NH2; thioether N-13) |  |
| 6.70 to 7.30 | CC(=O)Nc1ccc(-c2ccc(C[C@@H]3NC(=O)[C@H](Cc4ccc(-c5ccc(C(=O)O)cc5)cc4)NC(=O)[C@H](CN4CCOCC4)NC(=O)CSC[C@@H](C(=O)NCC(N)=O)NC(=O)[C@H](CC(C)C)NC(=O)[C@H](Cc4ccccn4)NC(=O)[C@H](C(C)C)NC(=O)[C@@H]4CCN4C(=O)[C@H](C(C)C)NC(=O)[C@@H](CCCNC(=N)N)NC(=O)[C@H](CC(=O)O)NC(=O)[C@H](Cc4ccccn4)NC(=O)CN(C)C3=O)cc2)cc1 [Example 190] ({CH2CO}-[Ala(morpholin-4-yl)][Bip(4'-COOH)][Bip(4'-NHAc)][Sar][2Pal]D[dR]V[Aze]V[2Pal]LCG-NH2; thioether N-13) |  |
| > 7.30 | CC(C)C[C@@H]1NC(=O)[C@H](Cc2ccc(O)cc2)NC(=O)[C@H](C(C)C)NC(=O)[C@@H]2CCN2C(=O)[C@H](CC(N)=O)NC(=O)[C@@H](CCCNC(=N)N)NC(=O)[C@H](CC(=O)O)NC(=O)[C@H](Cc2ccc(O)cc2)NC(=O)CN(C)C(=O)[C@H](Cc2ccc(-c3ccccc3)cc2)NC(=O)[C@H](Cc2ccc(-c3ccc(C(=O)O)cc3)cc2)NC(=O)[C@H](CN2CCOCC2)NC(=O)CSC[C@@H](C(=O)NCC(N)=O)NC1=O [Example 145] ({CH2CO}-[Ala(morpholin-4-yl)][Bip(4'-COOH)][Bip][Sar]YD[dR]N[Aze]VYLCG-NH2; thioether N-13) |  |
| 5.70 to 6.70 | CC(C)C[C@@H]1NC(=O)[C@H](CCCNC(=N)N)NC(=O)[C@H](C(C)C)NC(=O)[C@@H]2CCCN2C(=O)[C@H](Cc2ccc(CN)cc2)NC(=O)[C@H](CCCNC(=N)N)NC(=O)[C@H](CC(=O)O)NC(=O)[C@@H]2CCCN2C(=O)CN(C)C(=O)[C@H](Cc2ccc(-c3ccccc3)cc2)NC(=O)[C@H](Cc2ccc(-c3ccccc3)cc2)NC(=O)[C@H](Cc2ccccc2)NC(=O)CSC[C@@H](C(=O)NCC(N)=O)NC1=O [Example 22] ({CH2CO}-F[Bip][Bip][Sar]PDR[Phe(4-CH2NH2)]PVRLCG-NH2; thioether N-13) |  |
|  | CC(C)C[C@@H]1NC(=O)[C@H](CCCNC(=N)N)NC(=O)[C@H](C(C)C)NC(=O)[C@@H]2CCCN2C(=O)[C@H](C(C)C)NC(=O)[C@@H](CCCNC(=N)NCCCO)NC(=O)[C@H](CC(=O)O)NC(=O)[C@@H]2CCCN2C(=O)CN(C)C(=O)[C@H](Cc2ccc(-c3ccc(NC(=O)c4nn(CC(=O)O)c5ccccc45)cc3)cc2)NC(=O)[C@H](Cc2ccc(-c3ccccc3)cc2)NC(=O)[C@H](CN2CCOCC2)NC(=O)CSC[C@@H](C(=O)NCC(N)=O)NC1=O [Example 389] ({CH2CO}-[Ala(morpholin-4-yl)][Bip][Bip(4'-NH)](Indazole3carbonyl(1-CH2COOH))[Sar]PD[X41]VPVRLCG-NH2; thioether N-13) | > 7.30 |
|  | CC[C@H](C)[C@@H]1NC(=O)[C@@H]2CCN2C(=O)[C@H]([C@@H](C)CC)NC(=O)[C@@H](CCCNC(=N)N)NC(=O)[C@H](CC(=O)O)NC(=O)[C@H](Cc2ccc(O)cc2)NC(=O)CN(C)C(=O)[C@H](Cc2ccc(-c3ccc(NC(=O)c4ccccc4)cc3)cc2)NC(=O)[C@H](Cc2ccc(-c3ccccc3)cc2)NC(=O)[C@H](C(C)(C)C)NC(=O)CSC[C@@H](C(=O)NCC(N)=O)NC(=O)[C@H](CC(C)C)NC(=O)[C@H](Cc2ccc(O)cc2)NC1=O [Example 376] ({CH2CO}-[Tle][Bip][Bip(4'-NHBz)][Sar]YD[dR]I[Aze]IYLCG-NH2; thioether N-13) | 6.70 to 7.30 |
| > 7.30 | CC[C@H](C)[C@@H]1NC(=O)[C@@H](CCCNC(=N)N)NC(=O)[C@H](CC(=O)O)NC(=O)[C@H](Cc2cnc[nH]2)NC(=O)CN(C)C(=O)[C@H](Cc2ccc(-c3ccc(NC(C)=O)cc3)cc2)NC(=O)[C@H](Cc2ccc(-c3ccc(C(=O)O)cc3)cc2)NC(=O)[C@H](CC2CCCCC2)NC(=O)CSC[C@@H](C(=O)NCC(N)=O)NC(=O)[C@H](CC(C)C)NC(=O)[C@H](Cc2cnc[nH]2)NC(=O)[C@H](C(C)C)NC(=O)[C@@H]2CCCN2C1=O [Example 257] ({CH2CO}-[Cha][Bip(4'-COOH)][Bip(4'-NHAc)][Sar]HD[dR]IPVHLCG-NH2; thioether N-13) |  |
| > 7.30 | CC[C@H](C)[C@@H]1NC(=O)[C@@H]2CCCN2C(=O)[C@H]([C@@H](C)CC)NC(=O)[C@@H](CCCNC(=N)N)NC(=O)[C@H](CC(=O)O)NC(=O)[C@H](Cc2ccccn2)NC(=O)CN(C)C(=O)[C@H](Cc2ccc(-c3ccc(NC(C)=O)cc3)cc2)NC(=O)[C@H](Cc2ccc(-c3ccccc3)cc2)NC(=O)[C@H](CC2CCCCC2)NC(=O)CSC[C@@H](C(=O)NCC(N)=O)NC(=O)[C@H](CC(C)C)NC(=O)[C@H](Cc2cccc(C(N)=O)c2)NC1=O [Example 285] ({CH2CO}-[Cha][Bip][Bip(4'-NHAc)][Sar][2Pal]D[dR]IPI[Phe(3-CONH2)]LCG-NH2; thioether N-13) |  |
| 5.70 to 6.70 | CC(=O)Nc1ccc(-c2ccc(C[C@@H]3NC(=O)[C@H](Cc4ccc(-c5ccc(C(=O)O)cc5)cc4)NC(=O)[C@H](CC4CCCCC4)NC(=O)CSC[C@@H](C(=O)NCC(N)=O)NC(=O)[C@H](CC(C)C)NC(=O)[C@H](Cc4cccc(CN)c4)NC(=O)[C@H](C(C)C)NC(=O)[C@@H]4CCCN4C(=O)[C@H](C(C)C)NC(=O)[C@@H](CCCNC(=N)N)NC(=O)[C@H](CC(=O)O)NC(=O)[C@@H]4CCCN4C(=O)CN(C)C3=O)cc2)cc1 [Example 254] ({CH2CO}-[Cha][Bip(4'-COOH)][Bip(4'-NHAc)][Sar]PD[dR]VPV[Phe(3-CH2NH2)]LCG-NH2; thioether N-13) |  |
|  | CC[C@H](C)[C@@H]1NC(=O)[C@@H]2CCN2C(=O)[C@H]([C@@H](C)CC)NC(=O)[C@@H](CCCNC(=N)N)NC(=O)[C@H](CC(=O)O)NC(=O)[C@H](Cc2ccc(O)cc2)NC(=O)CN(C)C(=O)[C@H](Cc2ccc(-c3ccc(NC(=O)c4nn(CC(=O)O)c5ccccc45)cc3)cc2)NC(=O)[C@H](Cc2ccc(-c3ccccc3)cc2)NC(=O)[C@H](C(C)(C)C)NC(=O)CSC[C@@H](C(=O)NCC(N)=O)NC(=O)[C@H](CC(C)C)NC(=O)[C@H](Cc2ccc(O)cc2)NC1=O [Example 357] ({CH2CO}-[Tle][Bip][Bip(4'-NH)](Indazole3carbonyl(1-CH2COOH))[Sar]YD[dR]I[Aze]IYLCG-NH2; thioether N-13) | 6.70 to 7.30 |
| 6.70 to 7.30 | CC(C)C[C@@H]1NC(=O)[C@H](CCCNC(=N)N)NC(=O)[C@H](C(C)C)NC(=O)[C@@H]2CCCN2C(=O)[C@H](C(C)C)NC(=O)[C@H](CCCNC(=N)N)NC(=O)[C@H](CC(=O)O)NC(=O)[C@@H]2CCCN2C(=O)CN(C)C(=O)[C@H](Cc2ccc(-c3ccccc3)cc2)NC(=O)[C@H](Cc2ccc(-c3ccccc3)cc2)NC(=O)[C@H](CN2CCOCC2)NC(=O)CSC[C@@H](C(=O)NCC(N)=O)NC1=O [Example 32] ({CH2CO}-[Ala(morpholin-4-yl)][Bip][Bip][Sar]PDRVPVRLCG-NH2; thioether N-13) |  |
